# According to article PMC4893612 (Scientific Reports, 2016):
# Assays:
# Format in all cases: cell-based
# USP14 = USP14 (Homo sapiens, UniProt P54578); experiment: Cellular thermal shift assay (CETSA) in OPM-2 cells; parameters: endogenous in cells; host or cells: OPM-2 multiple myeloma cells; settings: 1 hour
# Description: For CETSA, the same amount of cells as one sample was treated with required condition and collected as described. Each sample was suspended in PBS supplemented with protease inhibitors after they were washed in PBS. And then these samples were heated at 51, 53, or 55 °C for 3 min. Immediately after heating, tubes were removed and incubated at room temperature for 3 min, and then snap-frozen in liquid nitrogen. Samples were freeze-thawed twice and centrifuged at 20,000 g for 20 min at +4 °C and supernatants were analysed by Western-blotting.
# KMS-11 = experiment: MTT antiproliferative assay, KMS-11; settings: Homo sapiens, 72 hours
# Description: (§1) Cell viability was monitored by the MTT (3-(4,5-dimethylthiazol-2-yl)-2,5-diphenyltetrazolium bromide) assay. For the MTT assay, cells were suspended at 5 × 10^5 cells/ml, and 100 μl aliquots were dispended into 96-well microtiter plates and exposed to drugs as described using DMSO control. At the end of incubations, 10 μl of a stock solution of 5 mg/ml MTT (3-(4,5-dimethylthiazol-2-yl)-2,5-diphenyltetrazolium bromide), was added into each well, and the plates were incubated 4 hours at 37 °C. Formazan crystals were dissolved with 100 μl of 10% SDS/10 mM HCl solution overnight at 37 °C. Since MTT assays are affected by mitochondrial activity, and since OXPHOS is affected by VLX1570 (unpublished observation), we used the acid phosphatase method[49] to determine cell viability in some experiments. After washing twice with PBS, cells were lysed in 100 μl of 0.1 M sodium acetate, 0,1% Triton X-100, p-nitrophenylphosphate (Pierce Biotechnology Inc, Rockford, IL) and incubated for 90 min at 37 °C. At the end of the incubation, 10 μl NaOH was added to each well and A405 was determined.
# RPMI8226 = experiment: MTT antiproliferative assay, RPMI8226; settings: Homo sapiens, RPMI-8226, 72 hours
# Description: as §1
# OPM-2 = experiment: MTT antiproliferative assay, OPM-2; settings: Homo sapiens, 72 hours
# Description: as §1
# OPM-2-BZ^R = experiment: MTT antiproliferative assay, OPM-2-BZR; settings: Homo sapiens, OPM-2-BZ^R (bortezomib resistant), 72 hours
# Description: as §1
# Sequence of USP14 (P54578 whole entry): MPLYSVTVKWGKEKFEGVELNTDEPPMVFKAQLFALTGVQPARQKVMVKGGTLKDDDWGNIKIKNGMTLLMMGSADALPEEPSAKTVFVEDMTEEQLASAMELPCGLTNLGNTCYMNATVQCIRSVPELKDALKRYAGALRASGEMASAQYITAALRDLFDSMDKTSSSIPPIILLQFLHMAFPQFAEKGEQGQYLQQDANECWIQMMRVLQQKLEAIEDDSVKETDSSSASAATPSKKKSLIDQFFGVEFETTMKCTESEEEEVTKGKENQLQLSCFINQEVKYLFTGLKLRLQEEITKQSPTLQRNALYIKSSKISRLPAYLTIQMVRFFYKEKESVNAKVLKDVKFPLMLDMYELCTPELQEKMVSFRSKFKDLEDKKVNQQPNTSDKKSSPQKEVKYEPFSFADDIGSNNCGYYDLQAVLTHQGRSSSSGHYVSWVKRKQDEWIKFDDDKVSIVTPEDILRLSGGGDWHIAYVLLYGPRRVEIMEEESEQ
thermostabilization of USP14 (USP14; 5 μM),Compound,IC50 (KMS-11) [nM],IC50 (RPMI8226) [nM],IC50 (OPM-2) [nM],IC50 (OPM-2-BZ^R) [nM],thermostabilization of USP14 (USP14; 1 μM)
induced thermostabilization,"CCC[C@H](NC(=O)/C(C#N)=C/c1cccc(Br)n1)c1ccccc1 [WP1130, reference compound]",,,,,
,C=CC(=O)N1C/C(=C\c2ccc([N+](=O)[O-])cc2)C(=O)/C(=C/c2ccc([N+](=O)[O-])cc2)C1 [b-AP15],83 ± 3,150 ± 14,160 ± 3,268 ± 12,induced thermostabilization
,CC(C)C[C@H](NC(=O)[C@H](Cc1ccccc1)NC(=O)c1cnccn1)B(O)O [bortezomib],67 ± 3,84 ± 5,32 ± 1,204 ± 10,
